Conditions: acidic group

Q: For `Sc1ccc2ncccc2c1`, which pKa is on record?
A: 6.5

Q: For `c1ccc2cc3[nH]cnc3cc2c1`, which pKa is on record?
A: 12.5

Q: With `Cc1cccc(=O)c(O)c1` as the compound, how does the pKa read?
A: 7.26

Q: Which pKa does the source give for `CC(C)SCC(=O)O` here?
A: 3.72

Q: With `CCC#CC(=O)O` as the compound, how does the pKa read?
A: 2.6

Q: Which pKa does the source give for `COc1ccccc1/C=C/C=N/O` here?
A: 10.8

Q: Which pKa does the source give for `[NH3+][C@@H](Cc1c[nH]c2ccccc12)C(=O)O` here?
A: 2.2

Q: Which pKa does the source give for `COc1cnccc1C(O)O` here?
A: 11.7

Q: With `CCOCC(=O)O` as the compound, how does the pKa read?
A: 3.61

Q: With `COc1cccc(OC)c1O` as the compound, how does the pKa read?
A: 10.1

Q: Which pKa does the source give for `C[C@H]([NH3+])C(=O)N[C@@H](Cc1c[nH]c[nH+]1)C(=O)O` here?
A: 2.73

Q: Which pKa does the source give for `O=S(=O)(Nc1ccc(Cl)cc1)C(F)(F)F` here?
A: 3.9

Q: Which pKa does the source give for `O=Cc1ccccc1B(O)O` here?
A: 7.31

Q: For `CC(=O)NS(=O)(=O)c1ccsc1C(=O)O`, which pKa is on record?
A: 3.1

Q: For `COc1ccc2[nH]c3c(C)nccc3c2c1`, which pKa is on record?
A: 14.6

Q: Which pKa does the source give for `Cc1cc(O)c(C(C)C)cc1Cl` here?
A: 9.98

Q: Which pKa does the source give for `O=C(O)[C@@H]1CCCC[C@@H]1O` here?
A: 4.8

Q: Which pKa does the source give for `CCC(C)[C@H]([NH3+])C(=O)O` (some centres undefined) here?
A: 2.26

Q: With `Cc1cc(C)[nH]n1` as the compound, how does the pKa read?
A: 15

Q: For `[NH3+]C/C=C\C(=O)O`, which pKa is on record?
A: 3.53

Q: With `O=C(O)[C@@H]1O[C@H](Oc2cccc3[nH+]cccc23)[C@@H](O)[C@H](O)[C@H]1O` as the compound, how does the pKa read?
A: 3.1

Q: For `C[NH+](C)Cc1cc(F)ccc1O`, which pKa is on record?
A: 8.12

Q: Which pKa does the source give for `S=c1[nH]c2ccccc2o1` here?
A: 6.33

Q: For `O=[N+]([O-])c1ccc(O)c(O)c1`, which pKa is on record?
A: 6.74

Q: With `O=C(Cc1ccccc1)c1cc[n+](Cc2cccc([N+](=O)[O-])c2)cc1` as the compound, how does the pKa read?
A: 8.68

Q: Which pKa does the source give for `On1nnc2ccccc21` here?
A: 4.6

Q: With `Cc1ccc(C(O)C(C(=O)O)c2ccc(-c3ccccc3)cc2)cc1` (centres undefined) as the compound, how does the pKa read?
A: 4.24

Q: With `Cc1[nH]c2ccccc2c1CC(=O)O` as the compound, how does the pKa read?
A: 4.67

Q: For `Cc1ccc2cccc(O)c2n1`, which pKa is on record?
A: 10.1

Q: For `O=C(O)C1CC1`, which pKa is on record?
A: 4.83

Q: For `O=c1cc[nH]cc1`, which pKa is on record?
A: 11.1

Q: With `CC[C@H](C(=O)O)[C@@]1(O)C[C@H]2CC[C@@H]1C2` as the compound, how does the pKa read?
A: 4.07

Q: Which pKa does the source give for `Oc1ccccc1-c1ccccn1` here?
A: 10.6

Q: With `Cc1cc(N(C)C)cc[n+]1O` as the compound, how does the pKa read?
A: 4.37

Q: For `CCCCCC(=O)NO`, which pKa is on record?
A: 9.58

Q: With `O=C(O)CC1CCCCC1` as the compound, how does the pKa read?
A: 4.8

Q: For `O=C(O)c1ccc(F)cc1`, which pKa is on record?
A: 4.16

Q: Which pKa does the source give for `CC(=O)CC(N)=O` here?
A: 10.4

Q: For `CC1CC(C(=O)O)=[N+]([O-])C1(C)C` (centres undefined), which pKa is on record?
A: 2.85

Q: For `CC/C(=N/O)C(C)=O`, which pKa is on record?
A: 9.38

Q: With `CC(C)c1cc(O)c(=O)ccc1Br` as the compound, how does the pKa read?
A: 6.53

Q: Which pKa does the source give for `CCOC(=O)Cc1nc2ccccc2[nH]1` here?
A: 13.1

Q: With `O=C(O)c1cc2cc(Cn3cc[nH+]c3)ccc2s1` as the compound, how does the pKa read?
A: 2.74

Q: For `Cc1cc(=O)oc2cc(O)ccc12`, which pKa is on record?
A: 7.8

Q: With `O=C(O)[C@@H]1CCC[NH2+]1` as the compound, how does the pKa read?
A: 1.94

Q: With `OCO` as the compound, how does the pKa read?
A: 12.8

Q: With `C[n+]1ccccc1C(C)(O)O` as the compound, how does the pKa read?
A: 10.6

Q: With `Cc1cc(O)cc(C)c1C#N` as the compound, how does the pKa read?
A: 8.21

Q: Which pKa does the source give for `O=C1CCC(Cl)C1=O` (centres undefined) here?
A: 7.05

Q: With `CN1c2ccccc2Nc2c(O)cccc21` as the compound, how does the pKa read?
A: 9.26

Q: Which pKa does the source give for `O=P([O-])([O-])C([NH2+]Cc1ccccn1)c1ccccc1O` (centres undefined) here?
A: 10.2

Q: For `Cc1ccc(C(=S)Nc2ccc(Cl)c(Cl)c2)cc1`, which pKa is on record?
A: 10.2

Q: Which pKa does the source give for `N#CCCNC(CC(N)=O)C(=O)O` (centres undefined) here?
A: 6.46

Q: For `O=C(O)c1ncccn1`, which pKa is on record?
A: 2.85

Q: For `O=C(O)c1cc(Cl)cc([N+](=O)[O-])c1`, which pKa is on record?
A: 2.17

Q: With `Nc1nc2nc[nH]c2c([O-])[nH+]1` as the compound, how does the pKa read?
A: 9.39

Q: Which pKa does the source give for `CC(C)C[C@H]([NH3+])C(=O)O` here?
A: 2.54

Q: With `Nn1cnnc1S` as the compound, how does the pKa read?
A: 7.47

Q: For `CC(C)CCOc1ccccc1/C=C/C(=O)O`, which pKa is on record?
A: 4.85

Q: Which pKa does the source give for `CC1(C)N=C(C(=O)CC(=O)C(F)(F)F)C(C)(C)N1O` here?
A: 4.66

Q: Which pKa does the source give for `O=C(/C=N/O)c1ccccc1` here?
A: 8.31

Q: Which pKa does the source give for `O=c1cc(-c2ccc(O)cc2)oc2ccccc12` here?
A: 8.27

Q: For `COc1cccc[n+]1O`, which pKa is on record?
A: 1.23

Q: Which pKa does the source give for `N#CC(C#N)=C(C#N)Nc1ccc(Br)cc1` here?
A: 4.45

Q: For `O=[N+]([O-])c1ccc(S)c([N+](=O)[O-])c1`, which pKa is on record?
A: 3.4

Q: For `O=C1CCC(C(=O)O)N1` (centres undefined), which pKa is on record?
A: 3.25

Q: For `Cc1cccc(O)c1O`, which pKa is on record?
A: 9.28

Q: With `CCc1ccc(OC)c(C(=O)NC[C@H]2CCC[NH+]2CC)c1O` as the compound, how does the pKa read?
A: 8.7

Q: With `CC/C(C)=C/C(=O)O` as the compound, how does the pKa read?
A: 5.14

Q: Which pKa does the source give for `O/N=C1\CCCc2nonc21` here?
A: 8.78

Q: For `NNC(=O)C(F)(F)C1(F)OC(F)(F)C(F)(F)C1(F)F` (centres undefined), which pKa is on record?
A: 8.26

Q: Which pKa does the source give for `CC(C)CS(=O)O` here?
A: 2.75

Q: Which pKa does the source give for `O=C(O)c1cccs1` here?
A: 3.46

Q: With `CC1(C)CCC(=O)N1O` as the compound, how does the pKa read?
A: 8.7

Q: Which pKa does the source give for `C/C=C(\Cl)C(=O)O` here?
A: 3.22

Q: For `Cc1cc(Cc2cc([N+](=O)[O-])ccc2O)cc(C)c1O`, which pKa is on record?
A: 7.12

Q: Which pKa does the source give for `Nc1nc([S-])c2[nH]cnc2n1` here?
A: 11.6

Q: With `c1ccc(-c2nc3ncncc3[nH]2)cc1` as the compound, how does the pKa read?
A: 8.09

Q: For `O=C(O)c1ccc([N+](=O)[O-])cc1`, which pKa is on record?
A: 3.43

Same assay, conditions: basic group

Q: Which pKa does the source give for `CC[NH+](CC)CCNc1nc(C)cc(N)n1` here?
A: 6.97

Q: With `[O-]c1cccnc1` as the compound, how does the pKa read?
A: 8.6

Q: For `CC1[C@H](N)[C@H]1N` (some centres undefined), which pKa is on record?
A: 8.98

Q: For `Nc1ncnc2c1nnn2Cc1ccco1`, which pKa is on record?
A: 2.6

Q: With `Nc1cccc2ccnnc12` as the compound, how does the pKa read?
A: 3.68

Q: With `c1ccc2cc3[nH]cnc3cc2c1` as the compound, how does the pKa read?
A: 5.24

Q: With `Cc1ccccc1/C(=N\CCC[NH+](C)C)c1cccc2ccccc12` as the compound, how does the pKa read?
A: 4.14

Q: Which pKa does the source give for `CCCCCCCCN(CC(C)O)CC(O)CC` (centres undefined) here?
A: 8.1

Q: Which pKa does the source give for `COc1ccc(N)cc1` here?
A: 5.35

Q: For `c1ccc(-c2ccco2)nc1`, which pKa is on record?
A: 4.18

Source: the pKa sets of Baltruschat and Czodrowski (2020)
